Test: solvent given as SMILES

SMILES: Cc1c(COC(=O)c2ccc(I)cc2)n2c(OCC(=O)c3ccc(I)cc3)c(C)c(=O)n2c1=O
- absorption maximum (in CCO): 387 nm

SMILES: CN(C)c1ccc(/C=C/c2cnc3ccccc3n2)cc1
- absorption maximum (in C1CCOC1): 424 nm
- absorption maximum (in CC#N): 424 nm
- absorption maximum (in CCCCCCC): 418 nm
- absorption maximum (in CS(C)=O): 435 nm
- absorption maximum (in ClCCl): 427 nm

SMILES: COc1ccc(OC)cc1
- absorption maximum (in C1CCCCC1): 286.2 nm

SMILES: O=C1Cc2ccc(cc2)CC(=O)Cc2ccc(c3nsnc23)C1
- absorption maximum (in C1CCCCC1): 384 nm
- absorption maximum (in CC#N): 382 nm
- absorption maximum (in ClC(Cl)Cl): 384 nm

SMILES: c1ccc2c(c1)-c1ccccc1C21c2ccccc2N(c2ccc(-c3nc([C@]45CC6CC(C[C@@H](C6)C4)C5)nc([C@]45C[C@H]6C[C@@H](C[C@H](C6)C4)C5)n3)cc2)c2ccccc21
- absorption maximum (in Cc1ccccc1): 380.1 nm

SMILES: C(=C\c1cc[n+](Cc2ccccc2)cc1)/c1cc[n+](Cc2ccccc2)cc1
- absorption maximum (in CC#N): 324 nm

SMILES: O=C1CCCC2=C1C(c1ccccc1)c1c(c3ccccc3oc1=O)N2 (stereo unspecified)
- absorption maximum (in CS(C)=O): 368 nm

SMILES: Fc1ccc2c(c1)sc1nc(-c3ccccc3)sc12
- absorption maximum (in CS(C)=O): 330 nm

SMILES: CC(=O)c1ccc(-c2ccc3c(c2)C(=O)c2cc(-c4ccc(C(C)=O)cc4)ccc2-3)cc1
- absorption maximum (in C1CCOC1): 343 nm

SMILES: O=P1(c2ccccc2)c2ccc(N3c4ccccc4Sc4ccccc43)cc2-c2cc(N3c4ccccc4Sc4ccccc43)ccc21
- absorption maximum (in Cc1ccccc1): 422 nm

SMILES: Cc1nc2c(ccc3ccc(O)cc32)oc1=O
- absorption maximum (in c1ccccc1): 370 nm

SMILES: COc1cc2sc3nc(-c4ccccc4)sc3c2cc1OC
- absorption maximum (in CS(C)=O): 360 nm

SMILES: CC(C)(C)c1ccc(C2=c3sc(-c4ccc(C(C)(C)C)cc4)cc3=[N+]3C2=Nc2c(-c4ccc(C(C)(C)C)cc4)c4sc(-c5ccc(C(C)(C)C)cc5)cc4n2[B-]3(F)F)cc1
- absorption maximum (in ClC(Cl)Cl): 767 nm

SMILES: CC(C)c1cc(C(C)C)c(B2c3ccccc3Oc3cc(N4c5ccccc5C5(c6ccccc6Oc6ccccc65)c5ccccc54)ccc32)c(C(C)C)c1
- absorption maximum (in Cc1ccccc1): 429 nm

SMILES: F[B-]1(F)n2c(-c3ccccc3)cc(-c3ccccc3)c2C=C2C(c3ccccc3)=CC(c3ccccc3)=[N+]21
- absorption maximum (in C1CCOC1): 571 nm

SMILES: Cc1c[nH]c(=O)[nH]c1=O
- absorption maximum (in CC#N): 261 nm

SMILES: c1cc2c3c(cccc3c1)NC(c1ccc3ccc4cccc5ccc1c3c45)N2
- absorption maximum (in CC#N): 341 nm
- absorption maximum (in CO): 340 nm
- absorption maximum (in CS(C)=O): 344 nm
- absorption maximum (in Cc1ccccc1): 344 nm

SMILES: Cc1cc2ccccc2c2c1c1ccccc1n2C
- absorption maximum (in ClCCl): 300 nm

SMILES: CC[n+]1c(-c2ccccc2)c2cc(N)ccc2c2ccc(NC(N)=[NH2+])cc21
- absorption maximum (in O): 444 nm

SMILES: COc1cc(/C=C2/SC(=O)NC2=O)ccc1O
- absorption maximum (in C1CCCCC1): 348 nm
- absorption maximum (in C1COCCO1): 358 nm
- absorption maximum (in CC#N): 354 nm
- absorption maximum (in CN(C)C=O): 340 nm
- absorption maximum (in CO): 355 nm
- absorption maximum (in O): 355 nm
- absorption maximum (in OCC(O)CO): 367 nm
- absorption maximum (in OCCO): 361 nm

SMILES: CCOC(=O)c1cc(C)n2nc(-c3ccccc3)ccc12
- absorption maximum (in C1CCCCC1): 390 nm

SMILES: c1ccc(-n2c(-c3ccc(-c4ccc5c(c4)C4(c6ccccc6-c6ccccc64)c4cc(-c6ccc(-c7nc8ccccc8n7-c7ccccc7)cc6)c6ccccc6c4-5)cc3)nc3ccccc32)cc1
- absorption maximum (in ClC(Cl)Cl): 359 nm

SMILES: COc1ccc(C#Cc2c3ccccc3c(C#Cc3ccc(OC)cc3)c3cc4sc(C)cc4cc23)cc1
- absorption maximum (in ClCCl): 520 nm

SMILES: Cc1ccsc1-c1cc2c3cc(-c4sccc4C)c4nc(C(F)(F)C(F)(F)C(F)(F)F)nc5c(-c6sccc6C)cc(c6cc(-c7sccc7C)c7nc(C(F)(F)C(F)(F)C(F)(F)F)nc1c7c26)c3c45
- absorption maximum (in C1CCOC1): 532 nm

SMILES: CCC1=C(C)C2=C(c3ccc(-c4c5ccccc5c(-c5ccccc5)c5ccccc45)cc3)c3c(C)c(CC)c(C)n3[B-](F)(F)[N+]2=C1C
- absorption maximum (in CC#N): 523 nm
- absorption maximum (in CCCCCC): 526 nm
- absorption maximum (in CCO): 525 nm
- absorption maximum (in CN(C)C=O): 526 nm
- absorption maximum (in Cc1ccccc1): 529 nm
- absorption maximum (in ClCCl): 527 nm

— the Deep4Chem optical property database
